Experimental data taken from the kinase profiling compilation of Christmann-Franck et al. (2016).

Legend:
Test in all cases: KINOMEscan competition binding
Settings in all cases: compound 10.0 µM
ACVR2B (human) = ACVR2B (human) (UniProt Q13705)
ACVRL1 (human) = ACVRL1 (human) (UniProt P37023)
TXK (human) = TXK (human) (UniProt P42681)
PKMYT1 (human) = PKMYT1 (human) (UniProt Q99640)
[1] = target: JAK1 JH2 pseudokinase (human) (UniProt P23458)
DYRK1B (human) = DYRK1B (human) (UniProt Q9Y463)
EPHB4 (human) = EPHB4 (human) (UniProt P54760)
EPHA3 (human) = EPHA3 (human) (UniProt P29320)
SYK (human) = SYK (human) (UniProt P43405)
STK3 (human) = STK3 (human) (UniProt Q13188)
STK17A (human) = STK17A (human) (UniProt Q9UEE5)
[2] = target: JAK3 JH1 catalytic (human) (UniProt P52333)
RPS6KA1 KD1 (human) = RPS6KA1 KD1 (human) (UniProt Q15418)
MAP3K10 (human) = MAP3K10 (human) (UniProt Q02779)
DDR2 (human) = DDR2 (human) (UniProt Q16832)
CSNK1G3 (human) = CSNK1G3 (human) (UniProt Q9Y6M4)
DAPK3 (human) = DAPK3 (human) (UniProt O43293)
PIK3CD (human) = PIK3CD (human) (UniProt O00329)
AURKC (human) = AURKC (human) (UniProt Q9UQB9)
MARK2 (human) = MARK2 (human) (UniProt Q7KZI7)
STK32C (human) = STK32C (human) (UniProt Q86UX6)
WEE2 (human) = WEE2 (human) (UniProt P0C1S8)
NLK (human) = NLK (human) (UniProt Q9UBE8)
MAPK13 (human) = MAPK13 (human) (UniProt O15264)
FES (human) = FES (human) (UniProt P07332)
EIF2AK2 (human) = EIF2AK2 (human) (UniProt P19525)
PHKG2 (human) = PHKG2 (human) (UniProt P15735)
RPS6KA5 KD1 (human) = RPS6KA5 KD1 (human) (UniProt O75582)
TYRO3 (human) = TYRO3 (human) (UniProt Q06418)
PAK4 (human) = PAK4 (human) (UniProt O96013)
FLT4 (human) = FLT4 (human) (UniProt P35916)
CDKL2 (human) = CDKL2 (human) (UniProt Q92772)
MYLK4 (human) = MYLK4 (human) (UniProt Q86YV6)
CDK18 (human) = CDK18 (human) (UniProt Q07002)
AKT1 (human) = AKT1 (human) (UniProt P31749)
MAP3K11 (human) = MAP3K11 (human) (UniProt Q16584)
ACVR1B (human) = ACVR1B (human) (UniProt P36896)
MKNK1 (human) = MKNK1 (human) (UniProt Q9BUB5)
AURKA (human) = AURKA (human) (UniProt O14965)
MYO3A (human) = MYO3A (human) (UniProt Q8NEV4)

Sequence of JAK1 JH2 pseudokinase (human) (P23458 whole entry, looked up): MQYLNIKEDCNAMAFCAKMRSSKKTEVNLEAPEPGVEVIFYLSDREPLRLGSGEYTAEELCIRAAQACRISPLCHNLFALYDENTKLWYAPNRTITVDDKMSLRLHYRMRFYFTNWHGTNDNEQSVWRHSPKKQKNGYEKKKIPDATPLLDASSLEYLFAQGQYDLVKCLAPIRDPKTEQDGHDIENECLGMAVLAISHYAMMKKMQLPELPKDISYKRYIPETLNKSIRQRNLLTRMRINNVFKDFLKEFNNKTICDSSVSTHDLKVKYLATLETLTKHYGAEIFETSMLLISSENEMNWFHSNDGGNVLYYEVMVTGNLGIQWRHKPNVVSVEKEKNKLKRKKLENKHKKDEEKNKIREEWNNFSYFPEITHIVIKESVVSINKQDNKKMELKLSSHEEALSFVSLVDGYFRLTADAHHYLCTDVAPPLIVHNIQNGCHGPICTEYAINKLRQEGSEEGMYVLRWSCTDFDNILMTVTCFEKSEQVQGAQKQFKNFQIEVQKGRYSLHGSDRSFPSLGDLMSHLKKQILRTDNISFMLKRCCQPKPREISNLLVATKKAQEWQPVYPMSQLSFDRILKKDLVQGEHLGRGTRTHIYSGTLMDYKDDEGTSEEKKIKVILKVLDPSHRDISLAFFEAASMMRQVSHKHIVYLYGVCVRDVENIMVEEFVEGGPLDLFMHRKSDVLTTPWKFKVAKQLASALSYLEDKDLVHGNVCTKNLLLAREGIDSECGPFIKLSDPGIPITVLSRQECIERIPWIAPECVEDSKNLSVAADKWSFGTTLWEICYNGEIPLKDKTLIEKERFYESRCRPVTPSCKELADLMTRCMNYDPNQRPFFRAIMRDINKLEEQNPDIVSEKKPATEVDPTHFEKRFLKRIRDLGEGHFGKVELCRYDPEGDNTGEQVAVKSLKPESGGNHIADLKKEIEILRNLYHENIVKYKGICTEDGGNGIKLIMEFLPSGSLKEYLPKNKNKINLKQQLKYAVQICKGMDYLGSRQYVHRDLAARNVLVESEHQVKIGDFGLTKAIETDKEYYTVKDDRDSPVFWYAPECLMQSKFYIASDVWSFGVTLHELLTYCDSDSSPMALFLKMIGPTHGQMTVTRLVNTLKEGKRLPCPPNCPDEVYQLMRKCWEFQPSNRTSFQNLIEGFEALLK
Sequence of STK32C (human) (Q86UX6 whole entry, looked up): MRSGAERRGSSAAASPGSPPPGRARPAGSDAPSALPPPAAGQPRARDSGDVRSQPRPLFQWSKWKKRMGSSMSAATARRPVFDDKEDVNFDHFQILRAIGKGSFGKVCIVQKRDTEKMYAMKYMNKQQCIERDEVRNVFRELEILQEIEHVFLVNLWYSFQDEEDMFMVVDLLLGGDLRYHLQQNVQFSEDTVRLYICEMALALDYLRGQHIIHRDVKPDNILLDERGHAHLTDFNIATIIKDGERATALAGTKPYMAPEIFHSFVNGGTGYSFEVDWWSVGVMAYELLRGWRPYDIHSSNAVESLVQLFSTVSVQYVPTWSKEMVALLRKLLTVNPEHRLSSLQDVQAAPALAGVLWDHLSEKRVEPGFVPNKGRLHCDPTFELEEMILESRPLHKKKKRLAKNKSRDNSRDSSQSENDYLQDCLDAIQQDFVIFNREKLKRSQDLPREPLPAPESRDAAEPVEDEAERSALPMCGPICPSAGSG
Sequence of EPHA3 (human) (P29320 whole entry, looked up): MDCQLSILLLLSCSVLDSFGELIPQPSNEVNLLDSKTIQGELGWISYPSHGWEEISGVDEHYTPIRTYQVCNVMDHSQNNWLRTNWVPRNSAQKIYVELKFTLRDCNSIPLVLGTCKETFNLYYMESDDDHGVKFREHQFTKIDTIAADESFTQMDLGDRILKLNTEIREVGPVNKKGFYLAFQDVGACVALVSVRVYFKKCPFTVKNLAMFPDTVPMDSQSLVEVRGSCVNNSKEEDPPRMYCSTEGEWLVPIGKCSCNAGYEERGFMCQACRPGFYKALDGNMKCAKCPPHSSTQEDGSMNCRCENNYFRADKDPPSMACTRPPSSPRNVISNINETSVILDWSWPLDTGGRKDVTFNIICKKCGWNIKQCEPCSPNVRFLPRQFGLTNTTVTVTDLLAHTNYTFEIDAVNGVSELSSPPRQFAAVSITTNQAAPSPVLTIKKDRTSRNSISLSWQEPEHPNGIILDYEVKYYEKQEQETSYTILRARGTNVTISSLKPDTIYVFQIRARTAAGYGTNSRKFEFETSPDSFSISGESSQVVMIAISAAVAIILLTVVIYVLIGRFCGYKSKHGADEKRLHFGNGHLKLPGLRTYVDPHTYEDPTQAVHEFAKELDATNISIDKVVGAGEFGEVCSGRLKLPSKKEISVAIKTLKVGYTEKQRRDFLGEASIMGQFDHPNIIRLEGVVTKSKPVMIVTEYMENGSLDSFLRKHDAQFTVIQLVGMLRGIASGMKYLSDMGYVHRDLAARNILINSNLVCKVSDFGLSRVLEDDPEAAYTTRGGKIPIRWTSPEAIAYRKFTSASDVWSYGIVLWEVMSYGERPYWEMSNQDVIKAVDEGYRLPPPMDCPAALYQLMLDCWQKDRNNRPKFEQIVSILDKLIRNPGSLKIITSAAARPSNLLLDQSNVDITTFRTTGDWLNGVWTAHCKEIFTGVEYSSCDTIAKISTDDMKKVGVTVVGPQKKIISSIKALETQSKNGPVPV
Sequence of TXK (human) (P42681 whole entry, looked up): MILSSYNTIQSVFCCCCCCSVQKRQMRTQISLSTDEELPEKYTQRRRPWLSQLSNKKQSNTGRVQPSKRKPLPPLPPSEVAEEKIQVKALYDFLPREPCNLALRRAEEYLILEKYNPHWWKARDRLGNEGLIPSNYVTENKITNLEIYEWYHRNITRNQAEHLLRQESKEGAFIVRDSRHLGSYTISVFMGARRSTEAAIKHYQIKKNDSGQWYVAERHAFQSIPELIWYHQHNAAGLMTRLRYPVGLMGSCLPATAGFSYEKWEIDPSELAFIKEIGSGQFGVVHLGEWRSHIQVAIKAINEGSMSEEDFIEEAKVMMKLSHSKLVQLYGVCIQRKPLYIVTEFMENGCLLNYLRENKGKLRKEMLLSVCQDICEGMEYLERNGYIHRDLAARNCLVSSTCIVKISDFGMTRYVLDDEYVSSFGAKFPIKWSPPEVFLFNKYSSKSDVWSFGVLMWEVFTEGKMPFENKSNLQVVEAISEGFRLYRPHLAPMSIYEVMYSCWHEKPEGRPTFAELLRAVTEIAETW
Sequence of MAPK13 (human) (O15264 whole entry, looked up): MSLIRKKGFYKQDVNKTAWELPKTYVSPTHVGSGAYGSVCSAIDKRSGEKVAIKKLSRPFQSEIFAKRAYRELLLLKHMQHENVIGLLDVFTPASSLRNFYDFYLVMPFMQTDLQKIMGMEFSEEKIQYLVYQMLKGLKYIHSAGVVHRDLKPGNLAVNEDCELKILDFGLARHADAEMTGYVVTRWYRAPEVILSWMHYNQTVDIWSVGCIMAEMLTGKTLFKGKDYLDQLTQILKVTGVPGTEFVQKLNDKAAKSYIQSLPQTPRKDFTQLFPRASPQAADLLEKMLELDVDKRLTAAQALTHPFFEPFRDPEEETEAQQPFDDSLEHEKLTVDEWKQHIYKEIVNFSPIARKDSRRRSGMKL
Sequence of FES (human) (P07332 whole entry, looked up): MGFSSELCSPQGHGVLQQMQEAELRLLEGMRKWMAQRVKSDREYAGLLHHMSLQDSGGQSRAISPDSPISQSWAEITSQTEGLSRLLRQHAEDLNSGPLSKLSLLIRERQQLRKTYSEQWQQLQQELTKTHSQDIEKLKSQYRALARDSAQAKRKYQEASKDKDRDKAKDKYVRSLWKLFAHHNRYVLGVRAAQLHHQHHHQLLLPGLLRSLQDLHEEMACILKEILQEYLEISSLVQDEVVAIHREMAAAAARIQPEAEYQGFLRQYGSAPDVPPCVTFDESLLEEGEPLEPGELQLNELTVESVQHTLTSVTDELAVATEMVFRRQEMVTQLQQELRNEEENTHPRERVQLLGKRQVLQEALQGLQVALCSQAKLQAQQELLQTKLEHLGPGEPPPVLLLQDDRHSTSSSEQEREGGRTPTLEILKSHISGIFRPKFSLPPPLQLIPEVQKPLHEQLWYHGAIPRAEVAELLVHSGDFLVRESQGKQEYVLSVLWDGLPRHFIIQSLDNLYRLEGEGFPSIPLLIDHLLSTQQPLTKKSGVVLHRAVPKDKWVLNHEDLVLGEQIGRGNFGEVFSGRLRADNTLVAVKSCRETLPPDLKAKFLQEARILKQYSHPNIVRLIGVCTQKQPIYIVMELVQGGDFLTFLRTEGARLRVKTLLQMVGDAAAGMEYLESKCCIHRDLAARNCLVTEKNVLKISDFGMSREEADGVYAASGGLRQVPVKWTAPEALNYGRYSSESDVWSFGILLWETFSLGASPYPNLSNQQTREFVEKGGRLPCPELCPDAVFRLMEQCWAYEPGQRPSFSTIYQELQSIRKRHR
Sequence of AKT1 (human) (P31749 whole entry, looked up): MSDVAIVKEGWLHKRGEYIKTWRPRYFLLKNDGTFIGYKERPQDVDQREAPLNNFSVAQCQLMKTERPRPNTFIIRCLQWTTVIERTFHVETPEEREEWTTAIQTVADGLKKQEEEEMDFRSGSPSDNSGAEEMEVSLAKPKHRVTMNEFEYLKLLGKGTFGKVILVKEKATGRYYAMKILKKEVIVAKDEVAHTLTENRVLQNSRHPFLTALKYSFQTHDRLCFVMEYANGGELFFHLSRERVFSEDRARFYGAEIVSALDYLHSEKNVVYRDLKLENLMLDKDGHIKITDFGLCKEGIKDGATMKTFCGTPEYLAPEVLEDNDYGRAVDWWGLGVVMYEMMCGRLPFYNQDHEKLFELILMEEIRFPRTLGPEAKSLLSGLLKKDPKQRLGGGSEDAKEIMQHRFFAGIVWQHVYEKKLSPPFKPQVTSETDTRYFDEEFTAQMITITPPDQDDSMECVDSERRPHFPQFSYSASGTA

Row | Structure (SMILES) | kinase still bound, per cent of control (ACVR2B (human)) [%] | kinase still bound, per cent of control (ACVRL1 (human)) [%] | kinase still bound, per cent of control (TXK (human)) [%] | kinase still bound, per cent of control (PKMYT1 (human)) [%] | kinase still bound, per cent of control [1] [%] | kinase still bound, per cent of control (DYRK1B (human)) [%] | kinase still bound, per cent of control (EPHB4 (human)) [%] | kinase still bound, per cent of control (EPHA3 (human)) [%] | kinase still bound, per cent of control (SYK (human)) [%] | kinase still bound, per cent of control (STK3 (human)) [%] | kinase still bound, per cent of control (STK17A (human)) [%] | kinase still bound, per cent of control [2] [%] | kinase still bound, per cent of control (RPS6KA1 KD1 (human)) [%] | kinase still bound, per cent of control (MAP3K10 (human)) [%] | kinase still bound, per cent of control (DDR2 (human)) [%] | kinase still bound, per cent of control (CSNK1G3 (human)) [%] | kinase still bound, per cent of control (DAPK3 (human)) [%] | kinase still bound, per cent of control (PIK3CD (human)) [%] | kinase still bound, per cent of control (AURKC (human)) [%] | kinase still bound, per cent of control (MARK2 (human)) [%] | other results
1 | C=CC(=O)Nc1cccc(Nc2nc(N[C@H]3CC[C@H](N(C)C)CC3)nc3c2ncn3C(C)C)c1 | 91 | 100 | 48 | 93 | 76 | 49 | 60 | 54 | 72 | 57 | 100 | 89 | 9.4 | 84 | 100 | 8.2 | 23 | 92 | 69 | 57 | kinase still bound, per cent of control (STK32C (human)): 98%; kinase still bound, per cent of control (WEE2 (human)): 100%; kinase still bound, per cent of control (NLK (human)): 96%; kinase still bound, per cent of control (MAPK13 (human)): 94%; kinase still bound, per cent of control (FES (human)): 85%; kinase still bound, per cent of control (EIF2AK2 (human)): 78%; kinase still bound, per cent of control (PHKG2 (human)): 44%; kinase still bound, per cent of control (RPS6KA5 KD1 (human)): 93%; kinase still bound, per cent of control (TYRO3 (human)): 100%; kinase still bound, per cent of control (PAK4 (human)): 17%; kinase still bound, per cent of control (FLT4 (human)): 58%; kinase still bound, per cent of control (CDKL2 (human)): 100%; kinase still bound, per cent of control (MYLK4 (human)): 88%; kinase still bound, per cent of control (CDK18 (human)): 77%; kinase still bound, per cent of control (AKT1 (human)): 93%; kinase still bound, per cent of control (MAP3K11 (human)): 24%; kinase still bound, per cent of control (ACVR1B (human)): 87%; kinase still bound, per cent of control (MKNK1 (human)): 32%; kinase still bound, per cent of control (AURKA (human)): 100%; kinase still bound, per cent of control (MYO3A (human)): 94%
2 | O=C(NOC[C@H](O)CO)c1ccc(F)c(F)c1Nc1ccc(I)cc1F | 66 | 100 | 100 | 80 | 100 | 98 | 100 | 100 | 100 | 90 | 100 | 100 | 100 | 100 | 100 | 67 | 100 | 40 | 45 | 100 | kinase still bound, per cent of control (STK32C (human)): 100%; kinase still bound, per cent of control (WEE2 (human)): 77%; kinase still bound, per cent of control (NLK (human)): 77%; kinase still bound, per cent of control (MAPK13 (human)): 6.1%; kinase still bound, per cent of control (FES (human)): 100%; kinase still bound, per cent of control (EIF2AK2 (human)): 100%; kinase still bound, per cent of control (PHKG2 (human)): 93%; kinase still bound, per cent of control (RPS6KA5 KD1 (human)): 87%; kinase still bound, per cent of control (TYRO3 (human)): 80%; kinase still bound, per cent of control (PAK4 (human)): 100%; kinase still bound, per cent of control (FLT4 (human)): 94%; kinase still bound, per cent of control (CDKL2 (human)): 87%; kinase still bound, per cent of control (MYLK4 (human)): 100%; kinase still bound, per cent of control (CDK18 (human)): 100%; kinase still bound, per cent of control (AKT1 (human)): 81%; kinase still bound, per cent of control (MAP3K11 (human)): 100%; kinase still bound, per cent of control (ACVR1B (human)): 100%; kinase still bound, per cent of control (MKNK1 (human)): 100%; kinase still bound, per cent of control (AURKA (human)): 100%; kinase still bound, per cent of control (MYO3A (human)): 47%
